Measured values from patent US6534524B1, “Indazole compounds and pharmaceutical compositions for inhibiting protein kinases, and methods for their use” (Agouron Pharmaceuticals, Inc., priority 1999, dated 2003).
Read-outs that look alike come from different tables or passages of the source. One block for each compound: values may come before it.

Assays:
[1] = target: unphosphorylated VEGF-R2Δ50 (FLVK) (Homo sapiens, UniProt P35968, DEL940-989/E990V); test: VEGF-R2 coupled spectrophotometric assay, unphosphorylated VEGF-R2Δ50 (FLVK); details: for Ki: FLVK Ki, Table 1; for inhibition at 0.05 µM: read-out: FLVK % inhibition
unphosphorylated VEGF-R2Δ50 (FLVK), sequence (P35968 with tags, fused parts or gaps DEL940-989/E990V limits assumed): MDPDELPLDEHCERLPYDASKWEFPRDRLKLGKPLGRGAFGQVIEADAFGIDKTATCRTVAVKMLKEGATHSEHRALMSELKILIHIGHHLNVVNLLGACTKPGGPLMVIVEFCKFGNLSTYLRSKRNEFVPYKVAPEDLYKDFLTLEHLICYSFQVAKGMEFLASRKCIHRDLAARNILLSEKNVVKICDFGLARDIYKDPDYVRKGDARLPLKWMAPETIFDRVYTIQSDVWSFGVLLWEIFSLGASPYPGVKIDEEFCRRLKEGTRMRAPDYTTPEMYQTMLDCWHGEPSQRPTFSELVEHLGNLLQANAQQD

[2] = target: phosphorylated VEGF-R2Δ50 (FLVK-P) (Homo sapiens, UniProt P35968, DEL940-989/E990V); test: VEGF-R2 coupled spectrophotometric assay, phosphorylated VEGF-R2Δ50 (FLVK-P)
phosphorylated VEGF-R2Δ50 (FLVK-P), sequence (P35968 with tags, fused parts or gaps DEL940-989/E990V limits assumed): as above

[3] = Determination of inhibitor concentration in mouse plasma after intraperitoneal and oral dosing; assay type: in vivo; details: PO
Procedure, shortened: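 Mice dosed intraperitoneally or orally; blood taken by ocular bleed at 0.5, 1 and 4 h and by intracardiac puncture at 7 h. Plasma extracted with ethyl acetate after internal standard and NaOH addition, analysed by HPLC or LC-MS against a mouse-plasma standard curve.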

human CHK1 (FL-CHK1) = target: T1, human CHK1 (FL-CHK1) (Homo sapiens, UniProt O14757); test: CHK1 assay (coupled spectrophotometric, Syntide-2); assay type: biochemical
T1 construct: C-terminally His-tagged full-length human CHK1 (FL-CHK1); made in house; host or cells: baculovirus/insect cell system
T1 sequence (O14757 1-476): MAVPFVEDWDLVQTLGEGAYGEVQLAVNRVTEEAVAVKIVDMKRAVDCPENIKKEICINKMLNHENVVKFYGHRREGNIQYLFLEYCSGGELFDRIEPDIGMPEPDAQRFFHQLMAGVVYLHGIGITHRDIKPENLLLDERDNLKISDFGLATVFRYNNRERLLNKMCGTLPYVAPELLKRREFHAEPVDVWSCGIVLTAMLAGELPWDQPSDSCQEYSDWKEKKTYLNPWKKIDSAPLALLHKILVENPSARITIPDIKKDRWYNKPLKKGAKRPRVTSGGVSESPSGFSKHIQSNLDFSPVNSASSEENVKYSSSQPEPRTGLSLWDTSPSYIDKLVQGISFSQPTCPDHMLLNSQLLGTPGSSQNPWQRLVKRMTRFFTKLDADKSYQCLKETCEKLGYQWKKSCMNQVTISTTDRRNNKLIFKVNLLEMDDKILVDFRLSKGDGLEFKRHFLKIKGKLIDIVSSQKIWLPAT
Excerpt: CHK1 Construct for Assay: C-terminally His-tagged full-length human CHK1 (FL-CHK1) was expressed using the baculovirus/insect cell system. […] The protein was purified by conventional chromatographic techniques.
The production of ADP from ATP that accompanies phosphoryl transfer to the synthetic substrate peptide Syntide-2 ([…]) was coupled to oxidation of NADH using phosphoenolpyruvate (PEP) through the actions of pyruvate kinase (PK) and lactic dehydrogenase (LDH). The oxidation of NADH was monitored by following the decrease of absorbance at 340 nm (ε340=6.22 cm^−1 mM^−1) using a HP8452 spectrophotometer. […] Assays were initiated with 10 nM of FL-CHK1. Ki values were determined by measuring initial enzyme activity in the presence of varying concentrations of test compounds. The data were analyzed using Enzyme Kinetic and Kaleidagraph software.

CDK2/Cyclin A = CDK2/Cyclin A (Homo sapiens, UniProt P24941); test: CDK2/Cyclin A assay ([32P]ATP, Rb fragment); assay type: biochemical
[4] = tested on: human umbilical vein endothelial cells (HUVEC); test: HUVEC proliferation assay (VEGF-stimulated, MTT); assay type: cell-based; details: Homo sapiens, HUVEC
CDK4/Cyclin D3 complex = CDK4/Cyclin D3 complex (Homo sapiens, UniProt P11802); test: CDK4/Cyclin D assay ([32P]ATP, Rb fragment)
CDK4/Cyclin D3 complex, sequence (P11802 whole entry, the tested form may be a part): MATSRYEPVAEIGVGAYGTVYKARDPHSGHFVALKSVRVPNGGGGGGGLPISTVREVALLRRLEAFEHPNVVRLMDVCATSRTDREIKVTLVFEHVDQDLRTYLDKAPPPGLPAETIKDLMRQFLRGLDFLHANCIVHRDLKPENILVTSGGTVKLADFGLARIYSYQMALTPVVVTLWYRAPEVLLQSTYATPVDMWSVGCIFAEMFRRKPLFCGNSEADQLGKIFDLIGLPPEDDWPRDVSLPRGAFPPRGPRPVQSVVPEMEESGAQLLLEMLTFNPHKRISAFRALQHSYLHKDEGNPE
CDK4/Cyclin D3 complex, sequence (P30281 whole entry partner, the tested form may be a part): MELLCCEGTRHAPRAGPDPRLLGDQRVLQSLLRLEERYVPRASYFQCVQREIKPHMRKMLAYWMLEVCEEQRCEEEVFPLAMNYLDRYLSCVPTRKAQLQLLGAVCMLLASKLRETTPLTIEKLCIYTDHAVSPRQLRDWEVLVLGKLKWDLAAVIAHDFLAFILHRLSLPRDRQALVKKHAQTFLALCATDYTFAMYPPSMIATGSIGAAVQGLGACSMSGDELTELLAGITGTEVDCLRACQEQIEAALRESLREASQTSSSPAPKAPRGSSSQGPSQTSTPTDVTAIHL

LCK tyrosine kinase = target: T2, LCK tyrosine kinase (Homo sapiens, UniProt P06239, C224D/P223M); test: LCK spectrophotometric assay; assay type: biochemical; details: Table 1; compound concentration 1 μM; read-out: Lck-P % inhibition
T2 construct: starting from amino acid residue 223 to the end of the protein at residue 509; made in house; host or cells: insect cells
T2 sequence (P06239 223-509 P223M/C224D): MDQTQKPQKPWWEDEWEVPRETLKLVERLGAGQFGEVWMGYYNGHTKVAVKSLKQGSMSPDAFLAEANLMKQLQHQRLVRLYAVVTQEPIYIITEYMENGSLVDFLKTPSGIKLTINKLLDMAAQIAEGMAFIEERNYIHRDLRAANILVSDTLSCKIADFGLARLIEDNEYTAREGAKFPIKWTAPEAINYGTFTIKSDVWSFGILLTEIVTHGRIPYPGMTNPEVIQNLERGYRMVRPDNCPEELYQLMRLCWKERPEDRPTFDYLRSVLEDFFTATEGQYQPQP
Protocol: The production of ADP from ATP that accompanies phosphoryl transfer was coupled to oxidation of NADH using phosphoenolpyruvate (PEP) and a system having pyruvate kinase (PK) and lactic dehydrogenase (LDH). The oxidation of NADH was monitored by following the decrease of absorbance at 340 nm (e340=6.22 cm^−1 mM^−1) using a Beckman DU 650 spectrophotometer. […] Ki values were determined by measuring enzyme activity in the presence of varying concentrations of test compounds. The data were analyzed using Enzyme Kinetic and Kaleidagraph software.
The spectrophotometric assay was carried out as described above for VEGF-R2, except for the following changes in concentration: LCK=60 nM, MgCl2=0 mM, poly(E4Y1)=20 mM.

human FGF-R1 = human FGF-R1 (Homo sapiens, UniProt P11362, C488A/C584S/L457V); test: FGF-R spectrophotometric assay; details: for inhibition at 1 µM: read-out: FGF-P % inhibition, Table 1, compound concentration 1 μM
human FGF-R1, sequence (P11362 456-766 L457V/C488A/C584S): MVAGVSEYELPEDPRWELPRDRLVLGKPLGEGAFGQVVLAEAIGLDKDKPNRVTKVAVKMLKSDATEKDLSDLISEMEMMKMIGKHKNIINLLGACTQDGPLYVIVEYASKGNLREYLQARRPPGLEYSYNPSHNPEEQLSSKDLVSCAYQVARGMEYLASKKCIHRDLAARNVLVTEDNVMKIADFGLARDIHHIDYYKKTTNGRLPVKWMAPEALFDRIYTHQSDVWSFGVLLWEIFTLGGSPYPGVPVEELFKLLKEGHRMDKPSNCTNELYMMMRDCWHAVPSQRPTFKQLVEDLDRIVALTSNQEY

[5] = Human liver microsome (HLM) assay; assay type: in vitro ADME; details: human liver microsomes, 5 μM test compound
Procedure, shortened: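 Compound metabolism in human liver microsomes measured in triplicate. Samples at 0 and 2 h centrifuged at 14000 g for 10 min and analysed by LC-MS.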

[6] = + albumin, read-out: HUVEC + albumin IC50

SMILES: C=C(c1cccc(NC(=O)c2ccccc2)c1)c1ccc2c(/C=C/c3ccccc3)n[nH]c2c1 [Example 22(b), 6-(1-(3-(Benzoylamido)phenyl)-vinyl)-3-styryl-1H-indazole]
Ki [1]: 0.00063 µM
Ki [2]: 0.0012 µM

SMILES: O=C(Nc1cccc(C(=O)c2ccc3c(/C=C/c4ccccc4)n[nH]c3c2)c1)c1ccccc1 [Example 19(b), N-[3-(3-Styryl-1H-indazole-6-carbonyl)-phenyl]-benzamide]
plasma half-life (T1/2) ([3]; 50 mg/kg, vehicle PEG400:H2O pH 2.3 60:40): ∞
Ki [1]: 0.00049 µM
Ki [2]: 0.0066 µM

SMILES: C=CCOc1cc(-c2ccc3c(/C=C/c4ccc(OC)c(OC)c4)n[nH]c3c2)ccc1O [Example 1(c), 3-[E-2-(3,4-Dimethoxy-phenyl)vinyl]-6-(3-allyloxy-4-hydroxy-phenyl)-1H-indazole]
Ki (human CHK1 (FL-CHK1); Table 1, read-out: CHK-1 Ki): 0.078 µM
Ki (CDK2/Cyclin A; Table 1): 0.56 µM
IC50 ([4]; read-out: HUVEC IC50): > 1 µM
Ki (CDK4/Cyclin D3 complex): 0.67 µM
Ki [1]: 0.0014 µM
Ki [2]: 0.0047 µM

SMILES: CC(=O)Nc1cccc(C(=O)c2ccc3c(/C=C/c4ccccc4)n[nH]c3c2)c1 [Example 19(a), N-[3-(3-Styryl-1H-indazole-6-carbonyl)-phenyl]-acetamide]
Ki [1]: 0.0138 µM
Ki [2]: 0.0068 µM

SMILES: COc1cc(-c2ccc3c(-c4nc5ccccc5[nH]4)n[nH]c3c2)c(C)cc1O [Example 24(a), 4-[3-(1-H-Benzoimidazol-2-yl)-1-H-indazol-6-yl]-2-methoxy-5-methyl-phenol]
Ki (human CHK1 (FL-CHK1); Table 2): 0.028 µM
Ki (CDK2/Cyclin A; Table 2): 0.017 µM
Ki (CDK4/Cyclin D3 complex): 0.0051 µM
Ki [2]: 0.0983 µM

SMILES: Oc1ccc(-c2ccc3c(-c4nc5ccccc5[nH]4)n[nH]c3c2)c(Oc2ccccc2)c1 [Example 24(g), 3-1H-Benzoimidazol-2-yl-6-(2-phenoxy-4-hydroxyphenyl)-1H-indazole]
Ki (CDK2/Cyclin A; Table 2): 0.13 µM
Ki (CDK4/Cyclin D3 complex): 0.029 µM
Ki [2]: 0.194 µM

SMILES: CCn1nc(C)cc1C(=O)Nc1cc(Oc2ccc3c(/C=C/c4ncc[nH]4)n[nH]c3c2)ccc1C [Example 58]
inhibition at 1 µM (LCK tyrosine kinase): 19%
inhibition at 1 µM (human FGF-R1): 98%
inhibition at 0.05 µM [1]: 98%

SMILES: COc1cc(O)ccc1-c1ccc2c(-c3nc4ccccc4[nH]3)n[nH]c2c1 [Example 24(d), 3-1H-Benzoimidazol-2-yl-6-(4-hydroxy-2-methoxyphenyl)-1H-indazole]
Ki (human CHK1 (FL-CHK1); Table 2): 0.056 µM
Ki (CDK2/Cyclin A; Table 2): 0.083 µM
Ki (CDK4/Cyclin D3 complex): 0.017 µM
Ki [2]: 0.125 µM

SMILES: COc1cc(-c2ccc3c(/C=C/c4ccc(NC(=O)CN)cc4)n[nH]c3c2)ccc1O [Example 26, 6(4-Hydroxy-3-methoxyphenyl)-3-[E-2-(4-glycylamino-phenyl)-ethenyl]-1H-indazole]
Ki (human CHK1 (FL-CHK1); Table 1, read-out: CHK-1 Ki): 0.0066 µM
Ki (CDK2/Cyclin A; Table 1): 0.0032 µM
Ki [2]: 0.0011 µM

SMILES: O=CNc1ccccc1/C=C/c1n[nH]c2cc(C(=O)c3cccc(NC(=O)c4ccccc4)c3)ccc12 [Example 43, 6-(3-Benzamidobenzoyl)-3-E-[2-(2-formamidophenyl)ethenyl]-1H-indazole]
IC50 [4, 6]: 0.024 µM
inhibition at 0.05 µM ([2]; read-out: FLVK-P % inhibition): 56%

SMILES: C#CCNC(=O)c1ccccc1Nc1ccc2c(/C=C/c3ccccn3)n[nH]c2c1 [Example 39(b), 6-[2-(Prop-2-ynylcarbamoyl)phenylamino]-3-E-[2-(pyridin-2-yl)ethenyl]-1H-indazole]
inhibition at 1 µM (LCK tyrosine kinase): 10%
IC50 [4, 6]: > 0.01 µM
plasma half-life (T1/2) ([3]; 25 mg/kg, vehicle PEG400:H2O pH 2.3 30:70): 11.8 h
AUC(0-t) ([3]; female, 25 mg/kg, vehicle PEG400:H2O pH 2.3 30:70): > 31000 ng·h/mL
Cmax ([3]; female, 25 mg/kg, vehicle PEG400:H2O pH 2.3 30:70, read-out: Cmax): > 5000 ng/mL
concentration at 7 h ([3]; female, 25 mg/kg, vehicle PEG400:H2O pH 2.3 30:70, read-out: Cmin (7 hr conc.)): 3150 ng/mL
inhibition at 1 µM (human FGF-R1): 50%

SMILES: C(=C\c1n[nH]c2cc(Sc3ccccc3)ccc12)/c1ccccc1 [Example 8(c)]
Ki (human CHK1 (FL-CHK1); Table 1, read-out: CHK-1 Ki): > 10 µM
Ki [1]: 0.0026 µM
Ki [2]: 0.016 µM

SMILES: CN(c1cccc(NC(=O)c2ccccc2)c1)c1ccc2c(/C=C/c3ccccc3)n[nH]c2c1 [Example 12(b), N-{3-[Methyl-(3-styryl-1H-indazol-6-yl)-aimino]-phenyl}-benzamide]
Ki (human FGF-R1): 0.031 µM
Ki [1]: 0.00048 µM
Ki [2]: 0.0018 µM

SMILES: Cc1cc(O)c(Cl)cc1-c1ccc2c(-c3nc4ccccc4[nH]3)n[nH]c2c1 [Example 24(c), 4-[3-(1-H-Benzoimidazol-2-yl)-1-H-indazol-6-yl]-2-chloro-5-methyl-phenol]
Ki (human CHK1 (FL-CHK1); Table 2): 0.044 µM
Ki (CDK2/Cyclin A; Table 2): 0.0034 µM
Ki (CDK4/Cyclin D3 complex): 0.0015 µM
Ki [2]: 0.0142 µM

SMILES: Cc1cc(C(=O)Nc2cccc(Oc3ccc4c(/C=C/c5ccccn5)n[nH]c4c3)c2)n(C)n1 [Example 57, 6-[3-((1,3-Dimethyl-1H-pyrazol-5-yl)carboxamido)phenoxy]-3-E-[2-(pyridin-2-yl)ethenyl]-1H-indazole]
inhibition at 1 µM (LCK tyrosine kinase): 30%
inhibition at 1 µM (human FGF-R1): 89%
inhibition at 0.05 µM [1]: 100%

SMILES: O=C(Nc1cccc(Sc2ccc3c(/C=C/c4ccccc4)n[nH]c3c2)c1)c1ccccc1 [Example 20(b), 6(3-(Benzoylamido)-phenylsulfanyl)-3-styryl-1H-indazole]
Ki [1]: 0.0016 µM
Ki [2]: 0.008 µM

SMILES: C(=C\c1n[nH]c2cc(Oc3ccccc3)ccc12)/c1ccccc1 [Example 8(a), 3-(E-Styryl)-6-phenoxy-1H-indazole]
Ki (human CHK1 (FL-CHK1); Table 1, read-out: CHK-1 Ki): 0.53 µM
Ki (human FGF-R1): 0.042 µM
Ki [1]: 0.0032 µM
Ki [2]: 0.023 µM

SMILES: C=C(c1cccc(NC(C)=O)c1)c1ccc2c(/C=C/c3ccccc3)n[nH]c2c1 [Example 23, 6-(1-(3-Acetamido-phenyl)-vinyl)-3-styryl-1H-indazole]
% remain (HLM, 2 h) [5]: 74%
Ki [1]: 0.0016 µM
Ki [2]: 0.0021 µM

SMILES: C=C(c1cccc(NC(=O)c2ncc(C)s2)c1)c1ccc2c(/C=C/c3ccccc3)n[nH]c2c1 [Example 22(a), 6-(1-(3-(5-Methyl-thiaxole-2-carboxoylamido)phenyl)-vinyl)-3-styryl-1H-indazole]
Ki [1]: 0.00022 µM
Ki [2]: 0.0002 µM

SMILES: CC(=O)Nc1cccc(N(C)c2ccc3c(/C=C/c4ccccc4)n[nH]c3c2)c1 [Example 12(a), N-{3-[Methyl-(3-styryl-1H-indazol-6-yl)-amino]-phenyl}-acetamide]
% remain (HLM, 2 h) [5]: 59%
Ki (human FGF-R1): 0.019 µM
Ki [1]: 0.0018 µM
Ki [2]: 0.0069 µM

Ki (human FGF-R1): 0.049 µM
Ki [1]: 0.0027 µM
Ki [2]: 0.0019 µM
SMILES: CC(=O)Nc1cccc(Oc2ccc3c(/C=C/c4ccccc4)n[nH]c3c2)c1 [Example 4(b), N-[3-(3-Styryl-1H-indazol-6-yloxy)-phenyl]-acetamide]

SMILES: COc1cc(-c2ccc3c(-c4ccccc4)n[nH]c3c2)ccc1O [Example 2(b), 3-Phenyl-6-(3-methoxy-4-hydroxy-phenyl)-1H-indazole]
Ki (CDK2/Cyclin A; Table 1): 2.2 µM
Ki (CDK4/Cyclin D3 complex): 8 µM
Ki [1]: 0.3 µM
Ki [2]: 0.425 µM
